Assay results taken from patent US9546144B2, “Bifunctional compounds” (University of Pittsburgh—of the Commonwealth System of …, priority 2011, dated 2017).

Legend:
[1] = test system: luc+ bone marrow chimeric C57BL/6 mice; test: migration of luc+ marrow cells to irradiated lungs of luc+ marrow chimeric mice; format: in vivo, mouse; details: in drinking water, after second thoracic irradiation dose
Method: FIG. 14. Pulmonary migration of luc+ marrow cells to irradiated lungs of luc+ chimeric mice. Groups of 30 C57BL/6Tac mice were given 10 Gy TBI then 24 hr. later 1×10^7 luc+ bone marrow cells I.V. At day 63, subgroups received 18 Gy thoracic irradiation. […] Mice were serially imaged for luciferase, as described in the methods.
MMS350 was tested in two mouse models of fibrosis in the C57BL/6J model. In the first system (chimeric mice) C57BL/6 mice were irradiated to a total body dose of 10 Gy, which is known to be lethal for 100% of animals in the absence of bone marrow transplantation. These mice were then transplanted intravenously with luciferase positive C57BL/6J mouse bone marrow. These mice are valuable for measuring the site of hematopoiesis from donor origin marrow since the animals can be imaged for mobilization in a specific imaging system, which detects the luciferase signal. In this assay system, animals are injected with luciferin (the substrate for the enzyme luciferase) bone marrow cells, which contain luciferase (those from the donor marrow strain) metabolize luciferin and produce a […] which is detected in a camera system over the immobilized mice. These same animals can be imaged serially over several weeks-months and followed for migration of luciferase positive cells from bone marrow sites into irradiated sites. […]

PKD1 = target: T1, PKD1 (Homo sapiens, UniProt Q15139); test: radiometric PKD1 inhibition assay, cosolvent interference; format: biochemical; details: stock solutions in 25% 3/NMP
T1 sequence (Q15139 1-912): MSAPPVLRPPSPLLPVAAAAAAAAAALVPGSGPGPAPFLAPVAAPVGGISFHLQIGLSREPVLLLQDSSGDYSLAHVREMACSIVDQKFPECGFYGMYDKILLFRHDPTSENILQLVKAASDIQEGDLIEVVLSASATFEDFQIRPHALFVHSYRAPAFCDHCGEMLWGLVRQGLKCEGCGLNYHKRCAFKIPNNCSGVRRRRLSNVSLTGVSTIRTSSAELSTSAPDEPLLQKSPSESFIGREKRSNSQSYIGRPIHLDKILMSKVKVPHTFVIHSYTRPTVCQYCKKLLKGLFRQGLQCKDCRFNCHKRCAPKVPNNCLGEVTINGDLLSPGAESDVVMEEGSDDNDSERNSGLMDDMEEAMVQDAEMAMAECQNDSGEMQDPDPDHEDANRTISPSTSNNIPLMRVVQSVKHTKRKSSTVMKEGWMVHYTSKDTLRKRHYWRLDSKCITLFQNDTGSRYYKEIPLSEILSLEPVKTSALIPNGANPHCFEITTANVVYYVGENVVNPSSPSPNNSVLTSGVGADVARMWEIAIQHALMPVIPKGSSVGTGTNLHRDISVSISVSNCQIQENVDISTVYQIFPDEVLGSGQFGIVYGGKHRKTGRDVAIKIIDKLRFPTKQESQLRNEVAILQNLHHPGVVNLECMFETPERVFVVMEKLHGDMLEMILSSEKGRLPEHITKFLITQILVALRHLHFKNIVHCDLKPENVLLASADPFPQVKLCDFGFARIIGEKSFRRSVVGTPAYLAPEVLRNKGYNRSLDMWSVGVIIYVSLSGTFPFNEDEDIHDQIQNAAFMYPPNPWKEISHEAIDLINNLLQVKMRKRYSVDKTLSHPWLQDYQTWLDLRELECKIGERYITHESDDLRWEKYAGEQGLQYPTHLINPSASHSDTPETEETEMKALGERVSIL
Method: FIG. 8. Plot of PKD1 activity with compound concentrations of 1 μM. […] The % PKD1 activity is reported as the mean, and error bars represent SEM (n=3). The % PKD1 activity was determined as previously described.
FIG. 9. Plot of PKD1 activity with compound concentrations of 10 μM. […] The % PKD1 activity is reported as the mean, and error bars represent SEM (n=3). The % PKD1 activity was determined as previously described.
Recently, a series of compounds with nanomolar to micromolar inhibitory activity against the serine/threonine protein kinase D (PKD) isoform PKD1 was disclosed (FIG. 7). Several lead structures, especially those containing a pyrimidine moiety, suffered from poor solubility not only in aqueous media but also in DMSO. To test the feasibility of using sulfoxide 3 as a cosolvent for in vitro assays, its use in the radiometric PKD1 inhibition assay was examined. Inhibitory activity at two concentrations (1 μM and 10 μM) was measured using compound stock solutions in three formulations: DMSO, NMP, and 25% 3/NMP (FIGS. 8 and 9).

CC1(C[S+]([O-])CC2(C)COC2)COC1 [compound 3, 3,3′-Sulfinylbis(methylene)bis(3-methyloxetane)]
migration of bone marrow cells into the lungs [1]: significantly reduces migration of bone marrow cells into the lungs | interference with the standard PKD1 inhibition assay (PKD1): did not interfere
